From US20070219245A1, “METHOD OF USE FOR SUBSTITUTED DIPIPERIDINE CCR2 ANTAGONISTS” (priority 2006, published 2007)

Tests used:
Format in all cases: in vivo
[1] = test system: DIO mice; experiment: Diet induced obesity (DIO) model, treatment arm TA1 (high fat diet); conditions: for Body Weight Gain / Change in Fat Mass / Change in Lean Mass / Change in Water / Food Intake / Plasma MCP-1: TA1 DIO mice, high fat diet, mean ± SEM
Experimental: (§1) In a diet induced obesity (DIO) model in mice, two treatment arms of mice were tested. In the first treatment arm (TA1), DIO mice in four treatment groups (treated: 25 mg/kg, 50 mg/kg and 100 mg/kg and non-treated vehicle control) were fed a high fat diet. In the second treatment arm (TA2), lean mice in two treatment groups (treated: 100 mg/kg and non-treated vehicle control) were fed a regular chow diet. After 7 days acclimation to the diet, the treated groups in each arm were dosed (0.1 mL, ip, bid) with a test compound from Day 1 to Day 28 of the study. After 7 days acclimation to the diet, the non-treated groups in each arm were dosed (0.1 mL, ip, bid) with vehicle from Day 1 to Day 28 of the study. Body weight was monitored twice per week and on Day 28. After sacrifice, blood glucose, body weight, body mass, serum MCP-1 and insulin levels were also recorded. MCP-1 was measured by ELISA. The statistical analysis for p value was performed using the program Prism (Graphpad, Monrovia, Calif.) with the Student t-test (unpaired). All data are presented as the mean ± standard error of the mean (SEM).

[2] = test system: lean mice; experiment: Diet induced obesity model, treatment arm TA2 (lean mice, regular chow diet); conditions: 100 mg/kg ip bid Day 1-28, mean ± SEM
Experimental: as §1

[3] = test system: NON (NONcNZO10/LtJ) mice; experiment: Insulin sensitivity model: insulin tolerance test; conditions: mean ± SEM
Experimental: In an insulin sensitivity model in mice, four month old male NON (NONcNZO10/LtJ) mice in four treatment groups (treated: 25 mg/kg, 50 mg/kg and 100 mg/kg and non-treated vehicle control) were fed LabDiet® 5K20 for 28 days. The treated groups were dosed (0.1 mL, ip, bid) with a test compound from Day 1 to Day 28. The non-treated group was dosed (0.1 mL, ip, q.d.) with vehicle from Day 1 to Day 28. Body weight and blood glucose were monitored once per week and an insulin tolerance test was performed by i.p. injection of […] insulin, then fed blood glucose levels were measured at 0, 15, 30, 60, 90, and 120 min after insulin administration. The insulin tolerance test blood glucose levels at the time points the sample were taken after insulin administration are shown in Table 5. Blood glucose levels were measured using a Glucometer. MCP-1 and insulin were measured by ELISA. Plasma glucose and FFA were measured using Weko kits. The statistical analysis for p value was performed using the program Prism (Graphpad, Monrovia, Calif.) with the Student t-test (unpaired). All data are presented as the mean ± standard error of the mean (SEM).

For `O=C(O)[C@H](C1CCN(C(=O)/C=C/c2cc(F)c(F)c(F)c2)CC1)N1CCC(c2c[nH]c3ccccc23)CC1` [(S)-{[4-(1H-indol-3-yl)-piperidin-1-yl]}-{1-[(2E)-3-(3,4,5-trifluoro-phenyl)-acryloyl]-piperidin-4-yl}-acetic acid], the “body fat mass gain” value ([1]; DIO model in mice) was “significantly reduced”, the lean mass ([1]; DIO model in mice) was “no change” and the weight gain ([1]; DIO model in mice) was “significantly reduced”. For the same molecule, the “Body Weight Gain” value ([1]; 25 mg/kg ip bid Day 1-28) was 3.8 ± 1.2 g, the “Change in Fat Mass” value ([1]; 25 mg/kg ip bid Day 1-28) was 0.9 ± 0.7 g and the “Change in Lean Mass” value ([1]; 25 mg/kg ip bid Day 1-28) was 3.1 ± 0.9 g. The “Change in Water” value ([1]; 25 mg/kg ip bid Day 1-28) was 2.8 ± 0.8 g, the “Food Intake” value ([1]; 25 mg/kg ip bid Day 1-28) was 14.0 ± 1.6 g/7 days and the “Plasma MCP-1” value ([1]; 25 mg/kg ip bid Day 1-28) was 69.2 ± 5.6 pg/mL. The “Body Weight Gain” value ([1]; 50 mg/kg ip bid Day 1-28) was 3.4 ± 1.1 g, the “Change in Fat Mass” value ([1]; 50 mg/kg ip bid Day 1-28) was 0.4 ± 0.6 g and the “Change in Lean Mass” value ([1]; 50 mg/kg ip bid Day 1-28) was 4.9 ± 0.9 g. For the same molecule, the “Change in Water” value ([1]; 50 mg/kg ip bid Day 1-28) was 4.5 ± 0.8 g, the “Food Intake” value ([1]; 50 mg/kg ip bid Day 1-28) was 13.5 ± 1.8 g/7 days and the “Plasma MCP-1” value ([1]; 50 mg/kg ip bid Day 1-28) was 98.3 ± 7.6 pg/mL. The “Body Weight Gain” value ([1]; 100 mg/kg ip bid Day 1-28) was 2.3 ± 1.8 g, the “Change in Fat Mass” value ([1]; 100 mg/kg ip bid Day 1-28) was 0.2 ± 0.3 g and the “Change in Lean Mass” value ([1]; 100 mg/kg ip bid Day 1-28) was 3.4 ± 0.3 g. The “Change in Water” value ([1]; 100 mg/kg ip bid Day 1-28) was 2.9 ± 0.3 g, the “Food Intake” value ([1]; 100 mg/kg ip bid Day 1-28) was 14.5 ± 3.6 g/7 days and the “Plasma MCP-1” value ([1]; 100 mg/kg ip bid Day 1-28) was 503.5 ± 69.7 pg/mL. For the same molecule, the “Body Weight Gain” value [2] was 2.3 ± 1.5 g, the “Change in Fat Mass” value [2] was 0.6 ± 0.3 g and the “Change in Lean Mass” value [2] was 3.4 ± 0.8 g. For the same molecule, the “Change in Water” value [2] was 3.1 ± 0.7 g, the “Food Intake” value [2] was 22.8 ± 1.7 g/7 days and the “Plasma MCP-1” value [2] was 646.8 ± 112.5 pg/mL. For the same molecule, the “Blood Glucose” value ([3]; Day 7, 25 mg/kg ip bid, 0 min after insulin) was 333 ± 44 mg/dL, the “Blood Glucose” value ([3]; Day 7, 25 mg/kg ip bid, 15 min after insulin) was 213 ± 40 mg/dL and the “Blood Glucose” value ([3]; Day 7, 25 mg/kg ip bid, 30 min after insulin) was 157 ± 27 mg/dL. For the same molecule, the “Blood Glucose” value ([3]; Day 7, 25 mg/kg ip bid, 60 min after insulin) was 146 ± 21 mg/dL, the “Blood Glucose” value ([3]; Day 7, 25 mg/kg ip bid, 90 min after insulin) was 146 ± 18 mg/dL and the “Blood Glucose” value ([3]; Day 7, 25 mg/kg ip bid, 120 min after insulin) was 164 ± 23 mg/dL. The “Blood Glucose” value ([3]; Day 7, 50 mg/kg ip bid, 0 min after insulin) was 325 ± 54 mg/dL, the “Blood Glucose” value ([3]; Day 7, 50 mg/kg ip bid, 15 min after insulin) was 213 ± 51 mg/dL and the “Blood Glucose” value ([3]; Day 7, 50 mg/kg ip bid, 30 min after insulin) was 136 ± 20 mg/dL. For the same molecule, the “Blood Glucose” value ([3]; Day 7, 50 mg/kg ip bid, 60 min after insulin) was 115 ± 13 mg/dL, the “Blood Glucose” value ([3]; Day 7, 50 mg/kg ip bid, 90 min after insulin) was 115 ± 8 mg/dL and the “Blood Glucose” value ([3]; Day 7, 50 mg/kg ip bid, 120 min after insulin) was 142 ± 8 mg/dL. The “Blood Glucose” value ([3]; Day 7, 100 mg/kg ip bid, 0 min after insulin) was 230 ± 22 mg/dL, the “Blood Glucose” value ([3]; Day 7, 100 mg/kg ip bid, 15 min after insulin) was 141 ± 16 mg/dL and the “Blood Glucose” value ([3]; Day 7, 100 mg/kg ip bid, 30 min after insulin) was 105 ± 9 mg/dL.
